Active and inactive are the calls of the source. No cut-off for these calls is given here.
Tests used:
[1] = target: Cav1.2 (voltage-dependent L-type calcium channel subunit alpha-1C) (Rattus norvegicus, UniProt P22002); assay: Inhibition of rat Cav1.2 expressed in human tsA-201 cells co-expressing Cavbeta1b/Cavalpha2delta1 assessed as tonic block at 10 uM at holding potential of -90 mV by whole cell patch clamp method relative to control; assay type: cell-based
[2] = target: Voltage-dependent T-type calcium channel subunit alpha-1H (Homo sapiens) (UniProt O95180); assay: Inhibition of human Cav3.2 alpha1 expressed in human tsA-201 cells assessed as tonic block at 10 uM at holding potential of -110 mV by whole cell patch clamp method; assay type: cell-based
Sequence of Voltage-dependent T-type calcium channel subunit alpha-1H (Homo sapiens) (O95180 whole entry): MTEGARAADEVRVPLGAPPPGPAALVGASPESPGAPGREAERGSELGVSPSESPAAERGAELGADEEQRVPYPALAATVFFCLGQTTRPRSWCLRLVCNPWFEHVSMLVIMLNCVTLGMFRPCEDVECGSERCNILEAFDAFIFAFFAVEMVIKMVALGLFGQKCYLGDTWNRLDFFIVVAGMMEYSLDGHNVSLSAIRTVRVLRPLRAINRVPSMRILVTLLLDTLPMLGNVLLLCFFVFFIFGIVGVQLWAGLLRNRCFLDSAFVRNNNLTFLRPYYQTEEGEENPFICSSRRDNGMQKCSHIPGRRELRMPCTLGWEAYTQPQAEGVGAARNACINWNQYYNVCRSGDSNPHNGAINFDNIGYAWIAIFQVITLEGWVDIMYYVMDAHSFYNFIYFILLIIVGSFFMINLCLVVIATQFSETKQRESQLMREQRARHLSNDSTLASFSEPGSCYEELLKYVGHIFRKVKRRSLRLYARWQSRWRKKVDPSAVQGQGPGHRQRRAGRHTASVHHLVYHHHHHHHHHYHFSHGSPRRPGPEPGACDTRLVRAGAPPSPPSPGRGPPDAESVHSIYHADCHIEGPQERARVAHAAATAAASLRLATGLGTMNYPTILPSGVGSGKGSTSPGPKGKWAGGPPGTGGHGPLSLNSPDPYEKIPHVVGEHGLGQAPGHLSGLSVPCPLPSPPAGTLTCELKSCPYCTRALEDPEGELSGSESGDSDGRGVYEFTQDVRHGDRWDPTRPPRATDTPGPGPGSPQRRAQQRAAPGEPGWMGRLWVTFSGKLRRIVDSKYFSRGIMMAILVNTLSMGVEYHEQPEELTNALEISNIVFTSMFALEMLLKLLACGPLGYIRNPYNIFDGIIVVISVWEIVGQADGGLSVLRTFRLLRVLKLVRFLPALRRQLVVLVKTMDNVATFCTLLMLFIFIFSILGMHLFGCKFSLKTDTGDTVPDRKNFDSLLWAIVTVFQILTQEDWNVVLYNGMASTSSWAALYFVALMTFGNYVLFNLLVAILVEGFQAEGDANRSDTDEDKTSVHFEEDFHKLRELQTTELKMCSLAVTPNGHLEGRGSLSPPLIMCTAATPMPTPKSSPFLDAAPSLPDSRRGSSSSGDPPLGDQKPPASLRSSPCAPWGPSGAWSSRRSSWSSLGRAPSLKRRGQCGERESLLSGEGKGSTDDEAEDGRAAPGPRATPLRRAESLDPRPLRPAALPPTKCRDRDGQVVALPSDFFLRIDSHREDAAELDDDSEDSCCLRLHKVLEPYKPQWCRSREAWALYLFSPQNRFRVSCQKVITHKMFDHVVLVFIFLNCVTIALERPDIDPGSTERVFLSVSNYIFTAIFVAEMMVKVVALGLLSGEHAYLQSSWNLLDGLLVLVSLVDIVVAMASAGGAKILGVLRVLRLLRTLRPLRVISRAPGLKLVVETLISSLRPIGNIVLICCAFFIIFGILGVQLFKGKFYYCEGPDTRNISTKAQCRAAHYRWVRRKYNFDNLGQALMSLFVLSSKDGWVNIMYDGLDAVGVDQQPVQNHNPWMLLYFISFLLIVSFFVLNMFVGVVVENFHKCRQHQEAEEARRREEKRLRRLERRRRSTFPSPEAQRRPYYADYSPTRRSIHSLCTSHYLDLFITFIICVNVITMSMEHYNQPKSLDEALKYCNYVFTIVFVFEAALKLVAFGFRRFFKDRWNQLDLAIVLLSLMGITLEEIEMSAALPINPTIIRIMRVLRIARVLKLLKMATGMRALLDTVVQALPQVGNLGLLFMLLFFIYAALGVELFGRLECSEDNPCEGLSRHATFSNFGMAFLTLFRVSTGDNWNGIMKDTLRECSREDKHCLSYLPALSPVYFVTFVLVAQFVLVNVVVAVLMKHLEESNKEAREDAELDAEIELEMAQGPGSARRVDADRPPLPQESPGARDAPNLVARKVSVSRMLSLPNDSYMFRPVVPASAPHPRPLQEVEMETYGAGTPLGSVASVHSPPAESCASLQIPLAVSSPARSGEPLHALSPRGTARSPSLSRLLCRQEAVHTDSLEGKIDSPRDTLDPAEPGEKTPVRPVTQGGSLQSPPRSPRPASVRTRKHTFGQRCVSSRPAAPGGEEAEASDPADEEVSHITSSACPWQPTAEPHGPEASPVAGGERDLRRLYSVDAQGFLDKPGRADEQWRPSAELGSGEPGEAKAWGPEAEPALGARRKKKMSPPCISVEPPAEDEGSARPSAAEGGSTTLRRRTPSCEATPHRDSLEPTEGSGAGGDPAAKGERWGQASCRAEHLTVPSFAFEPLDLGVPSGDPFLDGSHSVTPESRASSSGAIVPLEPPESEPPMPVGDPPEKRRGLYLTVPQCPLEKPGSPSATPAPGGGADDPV

Sequence of Cav1.2 (voltage-dependent L-type calcium channel subunit alpha-1C) (P22002 whole entry): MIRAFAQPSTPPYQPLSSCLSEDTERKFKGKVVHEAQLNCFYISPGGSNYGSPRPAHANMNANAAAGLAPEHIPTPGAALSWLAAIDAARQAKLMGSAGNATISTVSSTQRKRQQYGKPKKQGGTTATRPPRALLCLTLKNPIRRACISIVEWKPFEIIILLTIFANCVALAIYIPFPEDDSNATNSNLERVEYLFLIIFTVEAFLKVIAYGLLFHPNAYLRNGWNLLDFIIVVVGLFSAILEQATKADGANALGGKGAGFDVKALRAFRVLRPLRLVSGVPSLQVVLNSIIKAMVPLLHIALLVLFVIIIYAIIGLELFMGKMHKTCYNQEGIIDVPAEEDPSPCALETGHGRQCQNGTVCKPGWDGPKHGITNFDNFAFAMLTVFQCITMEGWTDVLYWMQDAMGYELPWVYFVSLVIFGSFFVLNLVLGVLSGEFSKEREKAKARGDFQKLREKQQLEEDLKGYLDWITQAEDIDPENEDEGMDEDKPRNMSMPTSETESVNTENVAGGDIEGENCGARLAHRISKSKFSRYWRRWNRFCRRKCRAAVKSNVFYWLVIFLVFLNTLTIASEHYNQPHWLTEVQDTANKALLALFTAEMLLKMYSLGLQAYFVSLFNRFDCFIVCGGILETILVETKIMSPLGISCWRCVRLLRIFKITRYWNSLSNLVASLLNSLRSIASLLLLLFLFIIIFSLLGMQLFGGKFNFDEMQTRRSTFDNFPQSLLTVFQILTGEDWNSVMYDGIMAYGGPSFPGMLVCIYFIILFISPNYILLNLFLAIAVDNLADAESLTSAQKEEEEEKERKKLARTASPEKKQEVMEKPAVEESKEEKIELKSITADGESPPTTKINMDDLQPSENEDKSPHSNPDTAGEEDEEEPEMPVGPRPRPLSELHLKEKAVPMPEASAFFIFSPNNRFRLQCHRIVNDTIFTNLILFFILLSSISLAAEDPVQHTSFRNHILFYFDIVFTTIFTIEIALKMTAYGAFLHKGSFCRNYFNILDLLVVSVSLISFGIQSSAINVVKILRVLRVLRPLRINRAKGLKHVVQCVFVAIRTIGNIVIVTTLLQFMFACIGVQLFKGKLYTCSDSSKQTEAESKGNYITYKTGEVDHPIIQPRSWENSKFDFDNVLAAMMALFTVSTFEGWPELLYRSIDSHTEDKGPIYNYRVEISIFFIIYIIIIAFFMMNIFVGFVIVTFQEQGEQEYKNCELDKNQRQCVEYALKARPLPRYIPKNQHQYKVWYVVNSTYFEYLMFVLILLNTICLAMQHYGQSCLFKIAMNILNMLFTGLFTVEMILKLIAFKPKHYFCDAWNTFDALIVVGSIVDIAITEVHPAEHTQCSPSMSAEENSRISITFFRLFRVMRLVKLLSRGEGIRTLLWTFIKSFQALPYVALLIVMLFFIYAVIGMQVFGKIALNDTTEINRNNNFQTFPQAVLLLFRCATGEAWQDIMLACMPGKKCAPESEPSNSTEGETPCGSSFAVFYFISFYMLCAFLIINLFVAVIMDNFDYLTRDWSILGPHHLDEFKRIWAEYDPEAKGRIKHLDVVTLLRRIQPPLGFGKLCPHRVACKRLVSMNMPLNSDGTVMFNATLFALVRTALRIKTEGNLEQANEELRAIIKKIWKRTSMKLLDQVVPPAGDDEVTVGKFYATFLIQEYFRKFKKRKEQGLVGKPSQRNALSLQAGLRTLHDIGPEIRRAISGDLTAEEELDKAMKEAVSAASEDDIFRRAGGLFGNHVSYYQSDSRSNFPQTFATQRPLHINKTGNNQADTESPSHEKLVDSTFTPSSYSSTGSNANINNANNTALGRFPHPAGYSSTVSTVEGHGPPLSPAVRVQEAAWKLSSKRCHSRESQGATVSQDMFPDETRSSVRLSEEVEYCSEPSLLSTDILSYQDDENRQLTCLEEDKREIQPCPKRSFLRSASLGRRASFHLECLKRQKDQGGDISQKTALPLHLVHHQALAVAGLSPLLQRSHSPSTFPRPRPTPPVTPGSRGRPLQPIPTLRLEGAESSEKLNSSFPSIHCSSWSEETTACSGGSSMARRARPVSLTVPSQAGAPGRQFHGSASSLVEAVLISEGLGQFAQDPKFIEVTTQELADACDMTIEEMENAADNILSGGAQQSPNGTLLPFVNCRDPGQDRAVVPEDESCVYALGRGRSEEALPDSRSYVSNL

Row | Structure (SMILES) | inhibition [2] | inhibition at 10 µM [1] [%]
1 | CCOC(=O)C1=C(C)NC(=O)N(CCC(=O)OCc2cn(CC(=O)c3ccccc3)nn2)C1c1cccc([N+](=O)[O-])c1 (stereo not drawn) | Active | < 50
2 | CCOC(=O)C1=C(C)NC(=O)N(CCC(=O)OCc2cn(Cc3ccccc3)nn2)C1c1cccc([N+](=O)[O-])c1 (stereo not drawn) | Active | < 50
3 | CCOC(=O)C1=C(C)NC(=O)N(CCC#N)C1c1cccc([N+](=O)[O-])c1 (stereo not drawn) | inactive | < 50
4 | CCOC(=O)C1=C(C)NC(=O)N(CCC(=O)NCC(c2ccccc2)c2ccccc2)C1c1cccc([N+](=O)[O-])c1 (stereo not drawn) | inactive | < 50
5 | CCOC(=O)C1=C(C)NC(=O)N(CCC(=O)NCc2ccccc2)C1c1cccc([N+](=O)[O-])c1 (stereo not drawn) | inactive | < 50
6 | CCOC(=O)C1=C(C)NC(=O)N(CCC(=O)N(C)Cc2ccccc2)C1c1cccc([N+](=O)[O-])c1 (stereo not drawn) | inactive | < 50

Further lines, with some results ahead:

Row | inhibition [2] | Structure (SMILES) | inhibition at 10 µM [1] [%]
7 | Active | CCOC(=O)C1=C(C)NC(=O)N(CCC(=O)OCCOC)C1c1cccc([N+](=O)[O-])c1 (stereo not drawn) | 50
8 | Active | C#CCOC(=O)CCN1C(=O)NC(C)=C(C(=O)OCC)C1c1cccc([N+](=O)[O-])c1 (stereo not drawn) | 50
9 | inactive | CCOC(=O)C1=C(C)NC(=O)N(CCC(=O)OC)C1c1cccc([N+](=O)[O-])c1 (stereo not drawn) | < 50
10 | inactive | CCOC(=O)C1=C(C)NC(=O)N(CCC(=O)OC(C)C)C1c1cccc([N+](=O)[O-])c1 (stereo not drawn) | < 50
11 | inactive | CCOC(=O)C1=C(C)NC(=O)N(CCC(=O)O)C1c1cccc([N+](=O)[O-])c1 (stereo not drawn) | < 50
12 | Active | CCOC(=O)CCN1C(=O)NC(C)=C(C(=O)OCC)C1c1cccc([N+](=O)[O-])c1 (stereo not drawn) | > 75
13 | inactive | CCOC(=O)C1=C(C)NC(=O)N(CCC(=O)NN)C1c1cccc([N+](=O)[O-])c1 (stereo not drawn) | < 50
14 | inactive | CCOC(=O)C1=C(C)NC(=O)N(CCC(N)=O)C1c1cccc([N+](=O)[O-])c1 (stereo not drawn) | < 50

From ChEMBL document CHEMBL4020712, “Synthesis of new N3-substituted dihydropyrimidine derivatives as L-/T- type calcium channel blockers” (Eur J Med Chem, 2017)
